Each compound was assayed against T1, USP7 (Homo sapiens, UniProt Q93009) (assay: USP7 Assay A (Ubitquin-Rhodamine 110 Assay)). Conditions: USP7 activity in USP7 assay A and B (table does not say which assay per compound); read-out: USP7_IC50.
T1 construct: USP7, construct USP7 (208-1102) 6*His, Viva Biotech; 6xHis (C); purchased Viva Biotech
Assay type: biochemical
Experimental: Each assay was performed in a final volume of 15 μL in assay buffer containing 20 mM Tris-HCl (pH 8.0, (1M Tris-HCl, pH 8.0 solution; Corning 46-031-CM)), 1 mM GSH (L-Glutathione reduced; Sigma #G4251), 0.03% BGG ([…], Sigma, #G7516-25G), and 0.01% Triton X-100 (Sigma, #T9284-10L). […] 5 μL of 2× enzyme was added to assay plates (pre-stamped with compound) preincubated with USP7 for 30 minutes and then 5 μL of 2×Ub-Rh110 was added to assay plates. […] Fluorescence was read on the Envision (Excitation at 485 nm and Emission at 535 nm; Perkin Elmer) or on the PheraSTAR (Excitation at 485 nm and Emission at 535 nm; BMG Labtech).
Data from USP7 Assays A and B were reported as percent inhibition (inh) compared with control wells based on the following equation: % inh=1−((FLU−AveLow)/(AveHigh−AveLow)) where FLU=measured Fluorescence (See Tables 6-10). AveLow=average Fluorescence of no enzyme control (n=16). AveHigh=average Fluorescence of DMSO control (n=16). […] Data is fitted using the Levenburg Marquardt algorithm.

T1 sequence (Q93009 208-1102): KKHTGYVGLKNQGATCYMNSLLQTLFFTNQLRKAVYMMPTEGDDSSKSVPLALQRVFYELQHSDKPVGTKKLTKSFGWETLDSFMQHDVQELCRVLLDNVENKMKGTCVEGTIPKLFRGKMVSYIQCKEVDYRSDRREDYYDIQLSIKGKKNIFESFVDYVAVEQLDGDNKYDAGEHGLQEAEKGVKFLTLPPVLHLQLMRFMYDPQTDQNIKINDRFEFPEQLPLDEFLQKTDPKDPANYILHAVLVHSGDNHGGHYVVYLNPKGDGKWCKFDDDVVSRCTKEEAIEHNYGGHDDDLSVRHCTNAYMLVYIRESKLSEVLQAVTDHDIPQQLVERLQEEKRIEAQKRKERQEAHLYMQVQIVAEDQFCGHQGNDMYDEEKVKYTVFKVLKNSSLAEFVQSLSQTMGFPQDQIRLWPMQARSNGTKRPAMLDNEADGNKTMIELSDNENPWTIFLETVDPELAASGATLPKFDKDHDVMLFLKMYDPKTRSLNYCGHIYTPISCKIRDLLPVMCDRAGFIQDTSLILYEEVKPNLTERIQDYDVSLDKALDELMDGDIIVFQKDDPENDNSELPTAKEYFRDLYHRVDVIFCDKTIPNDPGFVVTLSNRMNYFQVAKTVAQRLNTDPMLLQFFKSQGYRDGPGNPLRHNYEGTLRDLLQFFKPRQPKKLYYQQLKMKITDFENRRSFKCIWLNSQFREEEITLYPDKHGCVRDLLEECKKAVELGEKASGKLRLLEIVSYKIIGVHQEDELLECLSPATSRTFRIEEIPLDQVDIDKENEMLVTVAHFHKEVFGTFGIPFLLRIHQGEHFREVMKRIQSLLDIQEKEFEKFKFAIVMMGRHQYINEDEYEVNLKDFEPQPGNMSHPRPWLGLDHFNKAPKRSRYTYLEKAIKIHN

Q: For `Cc1cnn([C@@H](CC(=O)N2CCC(O)(Cn3cnc4c(cnn4-c4ccc(F)cc4)c3=O)CC2)C(F)F)c1` (single isomer, unassigned) [Compound I-736], which IC50 is on record?
A: The IC50 was > 10000 nM.

Q: With `CN1CCN(c2ccc(-n3ncc4c(=O)n(CC5(O)CCN(C(=O)C[C@@H](C(F)F)n6cccn6)CC5)cnc43)cc2)CC1` (single isomer, unassigned) [Compound I-827] as the compound, how does the IC50 read?
A: Its IC50 is 1000 to 10000 nM.

Q: `Cn1ccc2c(=O)n(CC3(O)CCN(C(=O)CC(C(F)F)n4ccc(F)n4)CC3)cnc21` (single isomer, unassigned) [Compound I-1695] was tested. Which IC50 did it give?
A: Its IC50 is < 200 nM.

Q: How did the IC50 turn out when `Cn1ccc2c(=O)n(CC3(O)CCN(C(=O)CC(C(F)F)n4ccc(F)n4)CC3)cnc21` (single isomer, unassigned) [Compound I-1696] was run?
A: The IC50 was > 10000 nM.

Q: `Cn1ncc2c(=O)n(CC3(O)CCN(C(=O)CC(C(F)F)n4ccc(F)n4)CC3)cnc21` (single isomer, unassigned) [Compound I-1697] was tested. Which IC50 did it give?
A: The IC50 was < 200 nM.

Q: `Cn1ncc2c(=O)n(CC3(O)CCN(C(=O)CC(C(F)F)n4ccc(F)n4)CC3)cnc21` (single isomer, unassigned) [Compound I-1698] was tested. Which IC50 did it give?
A: Its IC50 is > 10000 nM.

Q: Which IC50 does the source give for `O=C(C1CCC(Nc2cccnc2F)CC1)N1CCC(O)(Cn2cnc3c(cnn3-c3ccccc3)c2=O)CC1` (single isomer, unassigned) [Compounds I-1039] here?
A: Its IC50 is 200 to 1000 nM.

Q: For `COC1CCC(Oc2ccc(-n3ncc4c(=O)n(CC5(O)CCN(C(=O)C6(C)CC6)CC5)cnc43)cc2)CC1` (single isomer, unassigned) [Compounds I-1116], which IC50 is on record?
A: Its IC50 is 200 to 1000 nM.

Same assay, conditions: USP7 assay A and B (table does not say which assay per compound); Ubiquitin-Rhodamine 110 substrate; read-out: USP7_IC50

Q: With `CC(CC(=O)N1CCC(O)(Cn2cnc3c(cnn3C)c2=O)CC1)c1ccccc1` (centres unmarked) [Compound I-1, 5-((4-Hydroxy-1-(3-phenylbutanoyl)piperidin-4-yl)methyl)-1-methyl-1,5-dihydro-4H-pyrazolo[3,4-d]pyrimidin-4-one] as the compound, how does the IC50 read?
A: The IC50 was 200 to 1000 nM.

Q: How did the IC50 turn out when `Cn1ncc2c(=O)n(CC3(O)CCN(C(=O)c4ccc(-c5ccc(C(=O)N6CCCCC6)cc5)cc4Cl)CC3)cnc21` [Compound I-55] was run?
A: Its IC50 is 1000 to 10000 nM.

Q: How did the IC50 turn out when `C[C@H](CC(=O)N1CCC(O)(Cn2cnc3c(cnn3C)c2=O)CC1)c1ccccc1` [Compound I-57] was run?
A: The IC50 was 200 to 1000 nM.

Q: For `C[C@H](CC(=O)N1CCC(O)(Cn2cnc3c(cnn3C(C)(C)C)c2=O)CC1)c1ccccc1` [Compound I-59], which IC50 is on record?
A: The IC50 was 200 to 1000 nM.

Q: Which IC50 does the source give for `CC(C)(C)n1ncc2c(=O)n(CC3(O)CCN(C(=O)c4ccc(Oc5ccccc5)cc4)CC3)cnc21` [Compound I-60] here?
A: The IC50 was > 10000 nM.

Q: For `CC(C)n1ncc2c(=O)n(CC3(O)CCN(C(=O)C[C@@H](C)c4ccccc4)CC3)cnc21` [Compound I-61], which IC50 is on record?
A: The IC50 was 200 to 1000 nM.

Same assay, conditions: USP7 assay A and B (table does not say which assay per compound); read-out: USP7_IC50

Q: Which IC50 does the source give for `C[C@@H](CC(=O)N1CCC(O)(Cn2cnc3c(cnn3-c3ccc(F)cc3)c2=O)CC1)n1cc2c(n1)CCC2` (single isomer, unassigned) [Compound I-519] here?
A: The IC50 was > 10000 nM.

Q: `C[C@](O)(c1ccc(C(=O)N2CCC(O)(Cn3cnc4c(cnn4-c4ccc(F)cc4)c3=O)CC2)cc1)C(F)(F)F` (single isomer, unassigned) [Compound I-528] was tested. Which IC50 did it give?
A: Its IC50 is 1000 to 10000 nM.

Q: `COc1ccc(C(=O)N2CCC(O)(C(C)n3cnc4c(cnn4-c4ccc(F)cc4)c3=O)CC2)cc1` (single isomer, unassigned) [Compound I-615] was tested. Which IC50 did it give?
A: The IC50 was 200 to 1000 nM.

Q: `COC1(C)CCN(c2cc(-n3ncc4c(=O)n(CC5(O)CCN(C(=O)C6CC6)CC5)cnc43)ccc2F)C1` (single isomer, unassigned) [Compound I-971] was tested. Which IC50 did it give?
A: Its IC50 is 200 to 1000 nM.

Q: Which IC50 does the source give for `C[S+]([O-])c1ccc(-n2ncc3c(=O)n(CC4(O)CCN(C(=O)c5ccc(F)cc5)CC4)cnc32)cc1` (single isomer, unassigned) [Compound I-995, 5-((1-(4-fluorobenzoyl)-4-hydroxypiperidin-4-yl)methyl)-1-(4-(methylsulfinyl)phenyl)-1H-pyrazolo[3,4-d]pyrimidin-4(5H)-one] here?
A: The IC50 was 1000 to 10000 nM.

Q: With `C[S+]([O-])c1ccc(-n2ncc3c(=O)n(CC4(O)CCN(C(=O)c5ccc(F)cc5)CC4)cnc32)cc1` (single isomer, unassigned) [Compound I-996, 5-((1-(4-fluorobenzoyl)-4-hydroxypiperidin-4-yl)methyl)-1-(4-(methylsulfinyl)phenyl)-1H-pyrazolo[3,4-d]pyrimidin-4(5H)-one] as the compound, how does the IC50 read?
A: Its IC50 is 1000 to 10000 nM.

Q: For `CS(=N)(=O)c1ccc(-n2ncc3c(=O)n(CC4(O)CCN(C(=O)c5ccc(F)cc5)CC4)cnc32)cc1` (single isomer, unassigned) [Compound I-997, 5-((1-(4-fluorobenzoyl)-4-hydroxypiperidin-4-yl)methyl)-1-(4-(S-methylsulfonimidoyl)phenyl)-1,5-dihydro-4H-pyrazolo[3,4-d]pyrimidin-4-one], which IC50 is on record?
A: The IC50 was 1000 to 10000 nM.

Q: `CS(=N)(=O)c1ccc(-n2ncc3c(=O)n(CC4(O)CCN(C(=O)c5ccc(F)cc5)CC4)cnc32)cc1` (single isomer, unassigned) [Compound I-998, 5-((1-(4-fluorobenzoyl)-4-hydroxypiperidin-4-yl)methyl)-1-(4-(S-methylsulfonimidoyl)phenyl)-1,5-dihydro-4H-pyrazolo[3,4-d]pyrimidin-4-one] was tested. Which IC50 did it give?
A: The IC50 was 1000 to 10000 nM.

Q: For `CN(C(=O)N1CCC(O)(Cn2cnc3c(cnn3C)c2=O)CC1)c1ccc(-c2ccccc2)cc1` [Compound I-4, N-([1,1′-biphenyl]-4-yl)-4-hydroxy-N-methyl-4-((1-methyl-4-oxo-1,4-dihydro-5H-pyrazolo[3,4-d]pyrimidin-5-yl)methyl)piperidine-1-carboxamide], which IC50 is on record?
A: Its IC50 is > 10000 nM.

Q: For `O=C(O)Cc1cccc(-n2ncc3c(=O)n(CC4(O)CCN(C(=O)c5ccccc5)CC4)cnc32)c1` [Compound I-11, 2-(3-(5-((1-Benzoyl-4-hydroxypiperidin-4-yl)methyl)-4-oxo-4,5-dihydro-1H-pyrazolo[3,4-d]pyrimidin-1-yl)phenyl)acetic acid], which IC50 is on record?
A: The IC50 was > 10000 nM.

Q: With `Cn1ncc2c(=O)n(CC3(O)CCN(C(=O)c4ccc(Nc5ccccc5)cc4)CC3)cnc21` [Compound I-13] as the compound, how does the IC50 read?
A: The IC50 was 1000 to 10000 nM.

Q: For `O=C(c1ccccc1)N1CCC(O)(Cn2cnc3c(cnn3-c3ccccc3O)c2=O)CC1` [Compound I-18, 5-((1-Benzoyl-4-hydroxypiperidin-4-yl)methyl)-1-(2-hydroxyphenyl)-1,5-dihydro-4H-pyrazolo[3,4-d]pyrimidin-4-one], which IC50 is on record?
A: Its IC50 is > 10000 nM.

Q: `O=C(c1ccccc1)N1CCC(O)(Cn2cnc3c(cnn3-c3cccc(O)c3)c2=O)CC1` [Compound I-19] was tested. Which IC50 did it give?
A: Its IC50 is 1000 to 10000 nM.

Q: For `NCc1cccc(C(=O)N2CCC(O)(Cn3cnc4c(cnn4-c4ccccc4)c3=O)CC2)c1` [Compound I-20], which IC50 is on record?
A: Its IC50 is 1000 to 10000 nM.

Q: For `O=C(c1ccc(NC2CC2)cc1)N1CCC(O)(Cn2cnc3c(cnn3-c3ccccc3)c2=O)CC1` [Compound I-23, 5-((1-(4-(Cyclopropylamino)benzoyl)-4-hydroxypiperidin-4-yl)methyl)-1-phenyl-1,5-dihydro-4H-pyrazolo[3,4-d]pyrimidin-4-one], which IC50 is on record?
A: The IC50 was 200 to 1000 nM.

Q: With `CC(C)(C)c1ccc(-n2ncc3c(=O)n(CC4(O)CCN(C(=O)C5CC5)CC4)cnc32)cc1` [Compound I-25] as the compound, how does the IC50 read?
A: The IC50 was 200 to 1000 nM.

Q: For `Cc1cc(C)c(-n2ncc3c(=O)n(CC4(O)CCN(C(=O)C5CC5)CC4)cnc32)c(C)c1` [Compound I-26], which IC50 is on record?
A: Its IC50 is > 10000 nM.

Q: Which IC50 does the source give for `CC(C)c1ccc(-n2ncc3c(=O)n(CC4(O)CCN(C(=O)C5CC5)CC4)cnc32)cc1` [Compound I-27] here?
A: Its IC50 is 1000 to 10000 nM.

Q: `O=C(C1CC1)N1CCC(O)(Cn2cnc3c(cnn3-c3ccc(C(F)(F)F)cc3)c2=O)CC1` [Compound I-28] was tested. Which IC50 did it give?
A: Its IC50 is 1000 to 10000 nM.

Q: With `O=C(C1CC1)N1CCC(O)(Cn2cnc3c(cnn3C3CCCCC3)c2=O)CC1` [Compound I-29] as the compound, how does the IC50 read?
A: Its IC50 is > 10000 nM.

Q: For `O=C(C1CC1)N1CCC(O)(Cn2cnc3c(cnn3-c3cccnc3)c2=O)CC1` [Compound I-30], which IC50 is on record?
A: Its IC50 is 1000 to 10000 nM.

Q: `CS(=O)(=O)c1ccc(-n2ncc3c(=O)n(CC4(O)CCN(C(=O)C5CC5)CC4)cnc32)cc1` [Compound I-31] was tested. Which IC50 did it give?
A: Its IC50 is 1000 to 10000 nM.

Q: Which IC50 does the source give for `O=C(C1CC1)N1CCC(O)(Cn2cnc3c(cnn3-c3ccc(Cl)c(Cl)c3)c2=O)CC1` [Compound I-33] here?
A: Its IC50 is 1000 to 10000 nM.

Q: Which IC50 does the source give for `O=C(C1CC1)N1CCC(O)(Cn2cnc3c(cnn3-c3cccc(C(F)(F)F)c3)c2=O)CC1` [Compound I-34] here?
A: Its IC50 is > 10000 nM.

Q: With `O=C(C1CC1)N1CCC(O)(Cn2cnc3c(cnn3-c3ccc(Cl)cc3)c2=O)CC1` [Compound I-35] as the compound, how does the IC50 read?
A: Its IC50 is 1000 to 10000 nM.

Q: For `O=C(C1CC1)N1CCC(O)(Cn2cnc3c(cnn3-c3ccc(F)cc3)c2=O)CC1` [Compound I-38], which IC50 is on record?
A: The IC50 was 1000 to 10000 nM.

Q: For `C[C@@H](n1cnc2c(cnn2-c2ccc(F)cc2)c1=O)C1(O)CCN(C(=O)c2ccc(F)cc2)CC1` [Compound I-44], which IC50 is on record?
A: Its IC50 is 1000 to 10000 nM.

Q: `C=CS(=O)(=O)Nc1ccccc1-c1ccc(C(=O)N2CCC(O)(Cn3cnc4c(cnn4C)c3=O)CC2)cc1` [Compound I-45, N-(4′-(4-Hydroxy-4-((1-methyl-4-oxo-1,4-dihydro-5H-pyrazolo[3,4-d]pyrimidin-5-yl)methyl)piperidine-1-carbonyl)-[1,1′-biphenyl]-2-yl)ethenesulfonamide] was tested. Which IC50 did it give?
A: The IC50 was 200 to 1000 nM.

Q: Which IC50 does the source give for `O=C(c1ccccc1)N1CCC(O)(Cn2cnc3c(ccn3-c3ccc(F)cc3)c2=O)CC1` [Compound I-48] here?
A: Its IC50 is 1000 to 10000 nM.

Q: How did the IC50 turn out when `NCc1cccc(-n2ccc3c(=O)n(CC4(O)CCN(C(=O)c5ccc(F)cc5)CC4)cnc32)c1` [Compound I-51, 7-(3-(Aminomethyl)phenyl)-3-((1-(4-fluorobenzoyl)-4-hydroxypiperidin-4-yl)methyl)-3,7-dihydro-4H-pyrrolo[2,3-d]pyrimidin-4-one] was run?
A: The IC50 was 1000 to 10000 nM.

From patent US9902728B2, “Pyrrolo and pyrazolopyrimidines as ubiquitin-specific protease 7 inhibitors” (Forma Therapeutics, Inc., priority 2014, dated 2018)
